ChEMBL document CHEMBL1142738, “N-substituted piperidinyl alkyl imidazoles: discovery of methimepip as a potent and selective histamine H3 receptor agonist” (J Med Chem, 2005)

Assays:
Histamine H3 receptor [1] = molecular target: T1, Histamine H3 receptor (Homo sapiens, UniProt Q9Y5N1); assay: Inhibition of cAMP-stimulated beta-galactosidase transcription in SK-N-MC cells expressing human H3 receptor; type: functional, cell-based
Histamine H3 receptor [2] = molecular target: T1, Histamine H3 receptor; assay: Displacement of [3H]N-R-methylhistamine binding to SK-N-MC cell membranes expressing human H3 receptor
[3] = system: Histamine H3 receptor (Cavia porcellus); assay: Effect on guinea pig ileal muscle contraction evoked by electrical field stimulation (EFS)
Histamine H4 receptor = Histamine H4 receptor (Homo sapiens, UniProt Q9H3N8); assay: Displacement of [3H]histamine binding to SK-N-MC cell membranes expressing human histamine H4 receptor
Histamine H2 receptor = Histamine H2 receptor (Homo sapiens, UniProt P25021); assay: Displacement of [125I]aminopotentidine binding to CHO cell membranes expressing human histamine H2 receptor
Histamine H1 receptor = Histamine H1 receptor (Homo sapiens, UniProt P35367); assay: Displacement of [3H]mepyramine binding to COS-7 cell membranes expressing human histamine H1 receptor
Chain of Histamine H1 receptor (P35367 whole entry): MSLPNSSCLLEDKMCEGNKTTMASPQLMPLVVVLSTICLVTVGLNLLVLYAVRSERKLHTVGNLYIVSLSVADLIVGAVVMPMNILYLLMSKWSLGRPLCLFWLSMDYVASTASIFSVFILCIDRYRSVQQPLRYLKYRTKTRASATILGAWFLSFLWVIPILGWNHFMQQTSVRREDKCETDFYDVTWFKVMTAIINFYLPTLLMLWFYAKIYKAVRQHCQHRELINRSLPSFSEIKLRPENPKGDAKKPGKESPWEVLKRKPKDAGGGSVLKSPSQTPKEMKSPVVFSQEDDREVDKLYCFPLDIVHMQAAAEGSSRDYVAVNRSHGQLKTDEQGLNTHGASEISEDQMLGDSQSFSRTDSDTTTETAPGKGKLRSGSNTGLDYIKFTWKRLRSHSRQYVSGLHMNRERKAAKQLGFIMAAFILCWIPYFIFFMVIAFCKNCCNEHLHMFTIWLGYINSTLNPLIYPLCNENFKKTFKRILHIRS

T1 sequence (Q9Y5N1 whole entry): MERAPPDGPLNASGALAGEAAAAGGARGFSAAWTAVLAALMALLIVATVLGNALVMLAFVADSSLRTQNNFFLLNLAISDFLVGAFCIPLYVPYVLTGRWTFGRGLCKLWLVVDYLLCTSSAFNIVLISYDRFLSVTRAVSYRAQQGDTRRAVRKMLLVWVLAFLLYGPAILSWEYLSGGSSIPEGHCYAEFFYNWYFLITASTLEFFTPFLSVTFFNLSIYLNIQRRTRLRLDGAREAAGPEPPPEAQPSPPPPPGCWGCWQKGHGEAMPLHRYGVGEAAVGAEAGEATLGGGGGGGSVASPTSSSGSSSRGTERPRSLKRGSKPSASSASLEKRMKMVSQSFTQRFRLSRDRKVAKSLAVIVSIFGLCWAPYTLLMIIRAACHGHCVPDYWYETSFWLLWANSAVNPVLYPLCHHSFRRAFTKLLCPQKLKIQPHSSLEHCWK
Chain of Histamine H2 receptor (P25021 whole entry): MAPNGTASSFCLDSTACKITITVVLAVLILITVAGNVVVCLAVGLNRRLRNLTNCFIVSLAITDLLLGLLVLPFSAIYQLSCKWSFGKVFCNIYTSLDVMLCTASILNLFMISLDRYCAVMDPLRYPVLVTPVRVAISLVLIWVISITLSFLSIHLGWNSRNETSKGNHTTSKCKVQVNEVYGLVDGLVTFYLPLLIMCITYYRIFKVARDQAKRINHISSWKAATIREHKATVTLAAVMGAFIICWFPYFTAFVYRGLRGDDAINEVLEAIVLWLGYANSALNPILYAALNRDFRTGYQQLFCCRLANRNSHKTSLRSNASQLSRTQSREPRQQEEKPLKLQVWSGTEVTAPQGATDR

| SMILES | EC50 (Histamine H3 receptor [1]) | Ki (Histamine H3 receptor [2]) | Ki (Histamine H1 receptor) | pD2 [3] | Ki (Histamine H4 receptor) | Ki (Histamine H2 receptor) |
| --- | --- | --- | --- | --- | --- | --- |
| c1nc(CCC2CCNCC2)c[nH]1 | 12.6 nM |  |  |  |  |  |
| c1ccc(CN2CCC(CCc3c[nH]cn3)CC2)cc1 | > 10000 nM | 79.4 nM |  |  |  |  |
| c1ccc(CCN2CCC(CCc3c[nH]cn3)CC2)cc1 | > 10000 nM | 39.8 nM |  |  |  |  |
| CC(C)N1CCC(Cc2c[nH]cn2)CC1 | 7.94 nM | 63.1 nM |  |  |  |  |
| CCN1CCC(CCc2c[nH]cn2)CC1 | > 10000 nM | 63.1 nM |  |  |  |  |
| C(=C1CCN(CCc2ccccc2)CC1)c1c[nH]cn1 | 15.8 nM | 63.1 nM |  |  |  |  |
| C(=C1CCN(Cc2ccccc2)CC1)c1c[nH]cn1 | 79.4 nM | 398 nM |  |  |  |  |
| c1ccc(CCN2CCC(Cc3c[nH]cn3)CC2)cc1 | 7.94 nM | 10 nM |  |  |  |  |
| CC(C)N1CCC(CCc2c[nH]cn2)CC1 | 200 nM | 100 nM |  |  |  |  |
| c1ccc(CCCN2CCC(Cc3c[nH]cn3)CC2)cc1 | 31.6 nM | 39.8 nM |  |  |  |  |
| c1ccc(CN2CCC(Cc3c[nH]cn3)CC2)cc1 | 15.8 nM | 50.1 nM |  |  |  |  |
| c1nc(CC2CCNCC2)c[nH]1 [IMMEPIP] |  | 0.501 nM |  | 8.4 | 20 nM | > 10000 nM |

Now from value to molecule, other results behind:

| EC50 (Histamine H3 receptor [1]) | Ki (Histamine H3 receptor [2]) | Ki (Histamine H1 receptor) | SMILES | pD2 [3] | Ki (Histamine H4 receptor) | Ki (Histamine H2 receptor) |
| --- | --- | --- | --- | --- | --- | --- |
| 25.1 nM | 50.1 nM |  | CCN1CCC(=Cc2c[nH]cn2)CC1 |  |  |  |
| 50.1 nM | 50.1 nM |  | CN1CCC(CCc2c[nH]cn2)CC1 |  |  |  |
| 3.98 nM | 15.8 nM |  | c1nc(CC2CCN(C3CCCCC3)CC2)c[nH]1 |  |  |  |
| 3.98 nM | 15.8 nM |  | CCN1CCC(Cc2c[nH]cn2)CC1 |  |  |  |
| 50.1 nM | 31.6 nM |  | C(=C1CCN(C2CCCCC2)CC1)c1c[nH]cn1 |  |  |  |
| 2.51 nM | 5.01 nM |  | CN1CCC(=Cc2c[nH]cn2)CC1 |  |  |  |
|  | 6.31 nM |  | C(=C1CCNCC1)c1c[nH]cn1 |  |  |  |
| 63.1 nM | 63.1 nM |  | CC(C)N1CCC(=Cc2c[nH]cn2)CC1 |  |  |  |
| 316 nM | 158 nM |  | c1nc(CCC2CCN(C3CCCCC3)CC2)c[nH]1 |  |  |  |
| 0.316 nM | 1 nM | > 10000 nM | CN1CCC(Cc2c[nH]cn2)CC1 [METHIMEPIP] | 8.26 | 2000 nM | > 10000 nM |
